Laboratory results published in patent EP0504335B1, “A FIBRONECTIN BINDING PEPTIDE” (priority 1990, dated 1997).
Peptide text beside a SMILES is read from it.

Legend:
[1] = tested on: Human fibronectin; type: binding; conditions: for IC50: read-out: concentration eliciting a 50% inhibition of fibronectin binding
[2] = tested on: Treponema palladium; conditions: Thomas et al., 1985b; cited from earlier work
[3] = tested on: Trypanosoma cruzi; conditions: Ouaissi et al., 1986; cited from earlier work
[4] = tested on: spirochetes; conditions: cited from earlier work

Molecule | inhibitory activity (inhibition of ^125I-HFN binding to S. aureus 8325-4), in words [1] | IC50 [1] [µM] | other results
CC[C@H](C)[C@H](NC(=O)[C@H](CCC(=O)O)NC(=O)[C@@H](NC(=O)[C@H](Cc1c[nH]cn1)NC(=O)[C@H](CCCCN)NC(=O)[C@H](CC(N)=O)NC(=O)[C@@H](N)Cc1ccccc1)[C@@H](C)O)C(=O)N[C@H](C(=O)N[C@@H](CCC(=O)O)C(=O)N[C@@H](CCC(=O)O)C(=O)N[C@@H](CC(=O)O)C(=O)N[C@H](C(=O)N[C@@H](CC(N)=O)C(=O)N[C@@H](CCCCN)C(=O)N[C@@H](CC(=O)O)C(=O)N[C@@H](CCCCN)C(=O)N1CCC[C@H]1C(=O)N[C@@H](CO)C(=O)N[C@@H](Cc1ccc(O)cc1)C(=O)N[C@@H](CCC(N)=O)C(=O)N[C@@H](Cc1ccccc1)C(=O)NCC(=O)NCC(=O)N[C@@H](Cc1c[nH]cn1)C(=O)N[C@@H](CC(N)=O)C(=O)N[C@@H](CO)C(=O)N[C@H](C(=O)N[C@@H](CC(=O)O)C(=O)N[C@@H](Cc1ccccc1)C(=O)N[C@@H](CCC(=O)O)C(=O)N[C@@H](CCC(=O)O)C(=O)N[C@@H](CC(=O)O)C(=O)N[C@H](C(=O)N[C@@H](CC(C)C)C(=O)N1CCC[C@H]1C(=O)N[C@@H](CCCCN)C(=O)N[C@H](C(=O)O)C(C)C)[C@@H](C)O)C(C)C)[C@@H](C)O)[C@@H](C)CC [Peptide D3] (H-FNKHTEIIEEDTNKDKPSYQFGGHNSVDFEEDTLPKV-OH) | effective inhibitors |  | 
CC(C)C[C@H](NC(=O)[C@@H](NC(=O)[C@H](CC(=O)O)NC(=O)[C@H](CCC(=O)O)NC(=O)[C@H](CCC(=O)O)NC(=O)[C@H](Cc1ccccc1)NC(=O)[C@H](CC(=O)O)NC(=O)[C@@H](NC(=O)[C@H](CO)NC(=O)[C@H](CC(N)=O)NC(=O)[C@H](Cc1c[nH]cn1)NC(=O)CNC(=O)CNC(=O)[C@H](Cc1ccccc1)NC(=O)[C@H](CCC(N)=O)NC(=O)[C@H](Cc1ccc(O)cc1)NC(=O)[C@H](CO)NC(=O)[C@@H]1CCCN1C(=O)[C@@H](N)CCCCN)C(C)C)[C@@H](C)O)C(=O)N1CCC[C@H]1C(=O)N[C@@H](CCCCN)C(=O)O [Peptide S16-36] (H-KPSYQFGGHNSVDFEEDTLPK-OH) |  | 10 | 
CC(C)[C@H](NC(=O)[C@H](CO)NC(=O)[C@H](CC(N)=O)NC(=O)[C@H](Cc1c[nH]cn1)NC(=O)CNC(=O)CNC(=O)[C@H](Cc1ccccc1)NC(=O)[C@H](CCC(N)=O)NC(=O)[C@H](Cc1ccc(O)cc1)NC(=O)[C@H](CO)NC(=O)[C@@H]1CCCN1)C(=O)N[C@@H](CC(=O)O)C(=O)N[C@@H](Cc1ccccc1)C(=O)N[C@@H](CCC(=O)O)C(=O)N[C@@H](CCC(=O)O)C(=O)N[C@@H](CC(=O)O)C(=O)N[C@H](C(=O)O)[C@@H](C)O [Peptide S17-33] (H-PSYQFGGHNSVDFEEDT-OH) | dramatic recovery of activity | 100 | 
CC(C)C[C@H](NC(=O)[C@@H](NC(=O)[C@H](CC(=O)O)NC(=O)[C@H](CCC(=O)O)NC(=O)[C@H](CCC(=O)O)NC(=O)[C@H](Cc1ccccc1)NC(=O)[C@H](CC(=O)O)NC(=O)[C@@H](NC(=O)[C@H](CO)NC(=O)[C@H](CC(N)=O)NC(=O)[C@H](Cc1c[nH]cn1)NC(=O)CNC(=O)CNC(=O)[C@H](Cc1ccccc1)NC(=O)[C@@H](N)CCC(N)=O)C(C)C)[C@@H](C)O)C(=O)N1CCC[C@H]1C(=O)N[C@@H](CCCCN)C(=O)O [Peptide S20-36] (H-QFGGHNSVDFEEDTLPK-OH) |  | 200 | 
CC(C)C[C@H](NC(=O)[C@@H](NC(=O)[C@H](CC(=O)O)NC(=O)[C@H](CCC(=O)O)NC(=O)[C@H](CCC(=O)O)NC(=O)[C@H](Cc1ccccc1)NC(=O)[C@H](CC(=O)O)NC(=O)[C@@H](NC(=O)[C@H](CO)NC(=O)[C@H](CC(N)=O)NC(=O)[C@H](Cc1c[nH]cn1)NC(=O)CNC(=O)CNC(=O)[C@@H](N)Cc1ccccc1)C(C)C)[C@@H](C)O)C(=O)N1CCC[C@H]1C(=O)N[C@@H](CCCCN)C(=O)O [Peptide S21-36] (H-FGGHNSVDFEEDTLPK-OH) |  |  | fold less effective than S20-36 [1]: about 10 fold
RGDS |  |  | binding of fibronectin to Treponema palladium, in words [2]: prevented; binding of fibronectin to Trypanosoma cruzi, in words [3]: prevented; attachment of spirochetes to cultured human cells, in words [4]: blocked
